Measured values published in ChEMBL document CHEMBL1201862, “PubChem BioAssay data set” (2004).
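A five-concentration, 48-hour dose response in 96-well plates underlies each endpoint, interpolated linearly between surrounding concentrations. The concentration for 50% growth inhibition is given as GI50.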 The source made the active and inactive calls. No stated cut-off is given here; in the data, active = GI50 up to about 1.1 µM and inactive = higher.

Tests used:
Assay in all cases: growth of human tumour cells (NCI), 48 h
786-0 = test system: 786-0
RXF 393 = test system: RXF 393
ACHN = test system: ACHN
SF-295 = test system: SF-295
SW-620 = test system: SW-620
Malme-3M = test system: Malme-3M
OVCAR-8 = test system: OVCAR-8
Hs-578T = test system: Hs-578T
HT-29 = test system: HT-29
DU-145 = test system: DU-145
HOP-62 = test system: HOP-62
NCI-H522 = test system: NCI-H522
MDA-N = test system: MDA-N
NCI/ADR-RES = test system: NCI/ADR-RES
SK-MEL-28 = test system: SK-MEL-28
CCRF-CEM = test system: CCRF-CEM
NCI-H460 = test system: NCI-H460
OVCAR-4 = test system: OVCAR-4
OVCAR-5 = test system: OVCAR-5

Measured: GI50

c1nnc(NCNc2nncs2)s1
inactive: 786-0 46.8 µM | RXF 393 29 µM | ACHN 29.4 µM | SF-295 28.1 µM | SW-620 45.8 µM | Malme-3M > 100 µM | OVCAR-8 69.5 µM | Hs-578T > 100 µM | HT-29 19.1 µM | DU-145 16 µM | HOP-62 46.5 µM | NCI-H522 48.1 µM | MDA-N 35.2 µM | NCI/ADR-RES > 100 µM | SK-MEL-28 64.4 µM | CCRF-CEM 61.1 µM | NCI-H460 6.18 µM | OVCAR-4 11.7 µM | OVCAR-5 79.3 µM

COc1ccc(/N=N/C(=O)NC(CC(C)C)C(=O)NC(CC(C)C)C(=O)O)cc1 (stereo not drawn)
inactive: 786-0 > 100 µM | RXF 393 > 100 µM | ACHN 12.5 µM | SF-295 34.8 µM | SW-620 67 µM | Malme-3M 23.7 µM | OVCAR-8 > 100 µM | Hs-578T > 100 µM | HT-29 > 100 µM | DU-145 27.7 µM | HOP-62 > 100 µM | NCI-H522 51.9 µM | MDA-N 35.3 µM | NCI/ADR-RES > 100 µM | SK-MEL-28 17.8 µM | CCRF-CEM 42.6 µM | NCI-H460 68.9 µM | OVCAR-4 > 100 µM | OVCAR-5 4.02 µM

C/C(CC(O)(C(F)(F)F)C(F)(F)F)=N\N
inactive: 786-0 > 10 µM | RXF 393 > 10 µM | ACHN > 10 µM | SF-295 > 10 µM | SW-620 > 10 µM | Malme-3M > 10 µM | OVCAR-8 > 10 µM | Hs-578T > 10 µM | HT-29 > 10 µM | DU-145 > 10 µM | HOP-62 > 10 µM | NCI-H522 > 10 µM | MDA-N > 10 µM | NCI/ADR-RES > 10 µM | SK-MEL-28 > 10 µM | CCRF-CEM > 10 µM | NCI-H460 > 10 µM | OVCAR-4 > 10 µM | OVCAR-5 > 10 µM

S=C1CSc2c(cnc3ccccc23)N1
inactive: 786-0 > 100 µM | RXF 393 20 µM | ACHN > 100 µM | SF-295 52.2 µM | Malme-3M > 100 µM | OVCAR-8 65.9 µM | Hs-578T 20 µM | HT-29 > 100 µM | DU-145 > 100 µM | HOP-62 > 100 µM | NCI-H522 > 100 µM | MDA-N > 100 µM | NCI/ADR-RES > 100 µM | SK-MEL-28 > 100 µM | CCRF-CEM > 100 µM | NCI-H460 56.6 µM | OVCAR-4 > 100 µM | OVCAR-5 > 100 µM

CSc1ncnc2c1CCN2
inactive: 786-0 > 10 µM | RXF 393 > 10 µM | ACHN > 10 µM | SF-295 6.81 µM | SW-620 7.96 µM | Malme-3M 6.62 µM | OVCAR-8 > 10 µM | Hs-578T 4.51 µM | HT-29 7.96 µM | DU-145 > 10 µM | HOP-62 > 100 µM | NCI-H522 2.73 µM | MDA-N 3.4 µM | NCI/ADR-RES > 10 µM | SK-MEL-28 > 10 µM | CCRF-CEM > 10 µM | NCI-H460 5.37 µM | OVCAR-4 > 10 µM | OVCAR-5 > 10 µM

COC(=O)CC(c1ccccc1)C(C#N)(OP1(=O)OC(c2ccccc2)C(C)N1C)c1ccccc1 (stereo not drawn)
inactive: 786-0 83.4 µM | RXF 393 > 100 µM | ACHN 39.4 µM | SF-295 71.6 µM | SW-620 62.1 µM | Malme-3M 56.1 µM | OVCAR-8 48 µM | Hs-578T > 100 µM | HT-29 46.8 µM | DU-145 > 100 µM | HOP-62 > 100 µM | NCI-H522 35 µM | MDA-N 54.5 µM | NCI/ADR-RES 50.5 µM | SK-MEL-28 > 100 µM | CCRF-CEM 37.8 µM | NCI-H460 41.1 µM | OVCAR-4 33.3 µM | OVCAR-5 > 100 µM
